Like-named read-outs stand apart in the source and are kept apart here.
Target: T1, recombinant human NaV1.8 stably transfected HEK cells (Homo sapiens, UniProt Q9Y5Y9)
T1 construct: expressed in transfected cells; host or cells: HEK cells, stably transfected
Assay: Compound profiling on NaV1.8, human NaV1.8 cell line, SyncroPatch384PE automated patch clamp assay (Example 102, first set of compounds, Table 16)
Assay type: cell-based
Conditions: human NaV1.8 HEK cells, Table 16 (first set of compounds)
Method: Compound Profiling on NaV1.8—Human NaV1.8 Cell Line—SyncroPatch384PE Assay
Compounds were tested on recombinant human NaV1.8 stably transfected HEK cells using the SyncroPatch384PE system, an automated patch clamp device. Cells were cultured at 37° C./5% CO2 in DMEM medium supplemented with GlutaMAX I, NEAA 1%, FBS 10% and seeded in T175 flasks. Cells were cultured at 30° C. one day prior to recording sodium currents. On the day of the recordings, cells were detached with 0.05% Trypsin-EDTA, resuspended in serum free DMEM medium and placed into the SyncroPatch384PE 6° C. pre-cooled cell hotel and shaken at 200 rpm. Intracellular solution (IC) contained, in mM: 10, CsCl; 110, CsF; 20, EGTA; 10, HEPES. Extracellular solution (EC) contained, in mM: 140, NaCl; 4, KCl; 5, Glucose; 10, HEPES; 2, CaCl2; 1, MgCl2. Washing solution contained, in mM: 40, NMDG; 100, NaCl; 4, KCl; 10, Glucose; 10, HEPES; 5, CaCl2; 1, MgCl2.
Compounds were tested in triplicate in 0.1% DMSO and 0.030% Pluronic Acid. Compounds were diluted 1:3 in EC solution to create a 10-point concentration response curve, spanning a final concentration range from 20-0.001 μM in the assay plate. Each plate contained tetracaine and another tool compound as positive controls. Up to 8 compounds were tested on one plate. 250 μM tetracaine and 0.1% DMSO were used as high and low controls, respectively. Whole cell patch clamp recordings were conducted according to Nanion's standard procedure for SyncroPatch384PE®. Cells were held at a holding potential of −120 mV. A depolarization step to 10 mV for 30 ms was applied (P1 measurement), followed by a hyperpolarization step to −100 mV for 100 ms. An inactivation step at −40 mV for 10 sec was applied before stepping to −100 mV for 20 ms, followed by a step to 10 mV for 30 ms (P2 measurement) and then back to −100 mV for 30 ms. Sweep interval was 15 sec with a sampling rate of 10 kHz. Following establishment of the whole-cell configuration in EC, two washing steps with reference buffer were performed to stabilize the baseline. Compounds were then applied by the SynchroPatch into each well and the current was recorded for five minutes in EC, followed by application of tetracaine to achieve full block at the end of the experiment. The potency of the compounds was assessed on two read-outs, resting state block (P1 measurement) or inactivated state block (P2 measurement) to obtain IC50 values. Values were normalized to high (tetracaine) and low (DMSO) controls. The IC50 values are listed in Table 16 as follows: “A” represents an IC50 less than or equal to 20 nM, “B” represents an IC50 greater than 20 nM to less than or equal to 40 nM, “C” represents an IC50 greater than 40 nM to less than or equal to 200 nM, “D” represents an IC50 greater than 200 nM to less than or equal to 500 nM.

[1] = inactivated state block (P2 measurement), read-out: P2IC50
[2] = resting state block (P1 measurement), read-out: P1IC50

T1 sequence (Q9Y5Y9 whole entry): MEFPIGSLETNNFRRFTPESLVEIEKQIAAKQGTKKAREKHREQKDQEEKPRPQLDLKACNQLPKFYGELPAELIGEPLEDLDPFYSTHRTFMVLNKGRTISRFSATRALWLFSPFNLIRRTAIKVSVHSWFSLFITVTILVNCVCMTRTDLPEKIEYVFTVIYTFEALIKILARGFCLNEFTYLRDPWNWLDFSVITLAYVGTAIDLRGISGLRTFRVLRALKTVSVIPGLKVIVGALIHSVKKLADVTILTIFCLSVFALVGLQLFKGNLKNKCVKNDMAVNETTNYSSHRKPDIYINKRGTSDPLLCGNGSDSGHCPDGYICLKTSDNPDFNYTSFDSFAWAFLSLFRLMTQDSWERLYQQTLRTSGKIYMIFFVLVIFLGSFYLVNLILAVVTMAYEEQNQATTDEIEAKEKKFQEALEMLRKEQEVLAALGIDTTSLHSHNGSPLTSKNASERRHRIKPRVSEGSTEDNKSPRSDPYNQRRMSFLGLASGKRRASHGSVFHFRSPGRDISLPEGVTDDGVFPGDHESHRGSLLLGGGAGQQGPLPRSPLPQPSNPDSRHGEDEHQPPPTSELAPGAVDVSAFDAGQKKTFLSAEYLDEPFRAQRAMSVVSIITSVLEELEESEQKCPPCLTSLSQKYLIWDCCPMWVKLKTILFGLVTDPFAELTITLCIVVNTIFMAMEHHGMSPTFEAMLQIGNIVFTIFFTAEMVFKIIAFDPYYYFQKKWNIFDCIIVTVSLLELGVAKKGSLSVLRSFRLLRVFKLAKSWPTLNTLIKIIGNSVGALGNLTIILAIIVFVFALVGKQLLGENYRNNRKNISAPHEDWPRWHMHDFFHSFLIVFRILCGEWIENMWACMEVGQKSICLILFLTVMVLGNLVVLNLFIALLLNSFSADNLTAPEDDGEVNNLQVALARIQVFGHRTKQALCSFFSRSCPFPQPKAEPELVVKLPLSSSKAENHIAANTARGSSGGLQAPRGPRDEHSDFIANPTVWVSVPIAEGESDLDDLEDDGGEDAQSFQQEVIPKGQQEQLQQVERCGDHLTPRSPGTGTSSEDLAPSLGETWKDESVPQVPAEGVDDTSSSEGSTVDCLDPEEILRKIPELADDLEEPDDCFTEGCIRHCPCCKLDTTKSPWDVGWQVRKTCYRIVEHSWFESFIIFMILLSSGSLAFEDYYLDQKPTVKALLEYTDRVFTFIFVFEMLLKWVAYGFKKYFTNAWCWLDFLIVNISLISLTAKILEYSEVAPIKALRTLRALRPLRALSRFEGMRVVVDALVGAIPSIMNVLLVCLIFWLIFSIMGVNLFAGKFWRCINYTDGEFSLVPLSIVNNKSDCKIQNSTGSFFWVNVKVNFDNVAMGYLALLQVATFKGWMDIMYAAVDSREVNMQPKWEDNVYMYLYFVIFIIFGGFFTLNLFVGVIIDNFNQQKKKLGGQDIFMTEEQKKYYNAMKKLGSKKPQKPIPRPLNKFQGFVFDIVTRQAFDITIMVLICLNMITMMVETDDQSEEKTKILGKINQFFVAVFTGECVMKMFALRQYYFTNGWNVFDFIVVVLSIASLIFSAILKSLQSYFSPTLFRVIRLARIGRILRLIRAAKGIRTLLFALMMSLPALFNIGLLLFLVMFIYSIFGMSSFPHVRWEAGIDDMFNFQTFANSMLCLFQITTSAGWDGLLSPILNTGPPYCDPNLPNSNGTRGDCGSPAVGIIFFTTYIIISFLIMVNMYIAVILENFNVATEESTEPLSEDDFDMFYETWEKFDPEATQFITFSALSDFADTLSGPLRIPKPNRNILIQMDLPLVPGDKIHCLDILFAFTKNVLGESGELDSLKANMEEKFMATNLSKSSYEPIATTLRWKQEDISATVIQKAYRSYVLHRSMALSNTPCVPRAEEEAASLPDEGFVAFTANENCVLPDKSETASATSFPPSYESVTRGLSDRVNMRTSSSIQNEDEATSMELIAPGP

Row | SMILES | IC50 [1] | IC50 [2]
1 | CS(=N)(=O)c1cccc(NC(=O)c2cc(C(F)(F)F)cnc2OC2CC(C(F)(F)F)C2)c1 (mixture of isomers) [Compound 1666] | 0.04 to 0.2 µM | 0.04 to 0.2 µM
2 | NC(=O)c1cccc(NC(=O)c2cc(C(F)(F)F)cnc2OC2CC(C(F)(F)F)C2)c1 (mixture of isomers) [Compound 1667] | 0.2 to 0.5 µM | 0.2 to 0.5 µM
3 | N#CC1CC(Oc2ncc(C(F)(F)F)cc2C(=O)Nc2cccc(C(N)=O)c2)C1 (mixture of isomers) [Compound 1668] | 0.2 to 0.5 µM | 0.2 to 0.5 µM
4 | NC(=O)c1ccc(NC(=O)c2cc(C(F)(F)F)cnc2OC2CC(C(F)(F)F)C2)cc1 (mixture of isomers) [Compound 1670] | 0.2 to 0.5 µM | 0.2 to 0.5 µM
5 | N#CC1CC(Oc2ncc(C(F)(F)F)cc2C(=O)Nc2ccc(C(N)=O)cc2)C1 (mixture of isomers) [Compound 1671] | 0.2 to 0.5 µM | 0.2 to 0.5 µM
6 | Cc1c(C(F)(F)F)nnc(Oc2ccc(Cl)cc2F)c1C(=O)Nc1cccc(S(C)(=N)=O)c1 (single isomer, unassigned) [Compound 1471, 3-(4-chloro-2-fluoro-phenoxy)-5-methyl-N-[3-(methylsulfonimidoyl)phenyl]-6-(trifluoromethyl)pyridazine-4-carboxamide] | ≤ 0.02 µM | ≤ 0.02 µM
7 | Cc1c(C(F)(F)F)nnc(Oc2ccc(Cl)cc2F)c1C(=O)Nc1cccc(S(C)(=N)=O)c1 (single isomer, unassigned) [Compound 1472, 3-(4-chloro-2-fluoro-phenoxy)-5-methyl-N-[3-(methylsulfonimidoyl)phenyl]-6-(trifluoromethyl)pyridazine-4-carboxamide] |  | ≤ 0.02 µM
8 | COc1c(Oc2nnc(C(F)(F)F)c(C)c2C(=O)Nc2cccc(S(C)(=N)=O)c2)ccc(F)c1F (single isomer, unassigned) [Compound 1473, 3-(3,4-difluoro-2-methoxy-phenoxy)-5-methyl-N-[3-(methylsulfonimidoyl)phenyl]-6-(trifluoromethyl)pyridazine-4-carboxamide] | ≤ 0.02 µM | ≤ 0.02 µM
9 | COc1c(Oc2nnc(C(F)(F)F)c(C)c2C(=O)Nc2cccc(S(C)(=N)=O)c2)ccc(F)c1F (single isomer, unassigned) [Compound 1474, 3-(3,4-difluoro-2-methoxy-phenoxy)-5-methyl-N-[3-(methylsulfonimidoyl)phenyl]-6-(trifluoromethyl)pyridazine-4-carboxamide] |  | ≤ 0.02 µM
10 | Cc1c(C(F)(F)F)nnc(Oc2ccc(OC(F)(F)F)c(F)c2F)c1C(=O)Nc1cccc(S(C)(=N)=O)c1 (single isomer, unassigned) [Compound 1477, 3-[2,3-difluoro-4-(trifluoromethoxy)phenoxy]-5-methyl-N-[3-(methylsulfonimidoyl)phenyl]-6-(trifluoromethyl)pyridazine-4-carboxamide] | ≤ 0.02 µM | ≤ 0.02 µM
11 | Cc1c(C(F)(F)F)nnc(Oc2ccc(OC(F)(F)F)c(F)c2F)c1C(=O)Nc1cccc(S(C)(=N)=O)c1 (single isomer, unassigned) [Compound 1478, 3-[2,3-difluoro-4-(trifluoromethoxy)phenoxy]-5-methyl-N-[3-(methylsulfonimidoyl)phenyl]-6-(trifluoromethyl)pyridazine-4-carboxamide] |  | ≤ 0.02 µM
12 | COc1cc(C#N)ccc1Oc1nnc(C(F)(F)F)c(C)c1C(=O)Nc1cccc([S@@](C)(=N)=O)c1 (single isomer, unassigned) [Compound 1479] | ≤ 0.02 µM | ≤ 0.02 µM
13 | COc1cc(C#N)ccc1Oc1nnc(C(F)(F)F)c(C)c1C(=O)Nc1cccc([S@](C)(=N)=O)c1 (single isomer, unassigned) [Compound 1480] | ≤ 0.02 µM | ≤ 0.02 µM
14 | COc1cc(Cl)ccc1Oc1nnc(C(F)(F)F)c(C)c1C(=O)Nc1cccc(S(C)(=N)=O)c1 (single isomer, unassigned) [Compound 1481, 3-(4-chloro-2-methoxyphenoxy)-5-methyl-N-(3-(S-methylsulfonimidoyl)phenyl)-6-(trifluoromethyl)pyridazine-4-carboxamide] | ≤ 0.02 µM | ≤ 0.02 µM
15 | COc1cc(Cl)ccc1Oc1nnc(C(F)(F)F)c(C)c1C(=O)Nc1cccc(S(C)(=N)=O)c1 (single isomer, unassigned) [Compound 1482, 3-(4-chloro-2-methoxyphenoxy)-5-methyl-N-(3-(S-methylsulfonimidoyl)phenyl)-6-(trifluoromethyl)pyridazine-4-carboxamide] |  | ≤ 0.02 µM
16 | Cc1ccc(Oc2nnc(C(F)(F)F)c(C)c2C(=O)Nc2cccc(S(C)(=N)=O)c2)c(C)n1 (single isomer, unassigned) [Compound 1484, 3-[(2,6-dimethylpyridin-3-yl)oxy]-N-{3-[imino(methyl)oxo-λ^6-sulfanyl]phenyl}-5-methyl-6-(trifluoromethyl)pyridazine-4-carboxamide] | 0.2 to 0.5 µM | 0.2 to 0.5 µM
17 | Cc1ccc(Oc2nnc(C(F)(F)F)c(C)c2C(=O)Nc2cccc(S(C)(=N)=O)c2)c(C)n1 (single isomer, unassigned) [Compound 1485, 3-[(2,6-dimethylpyridin-3-yl)oxy]-N-{3-[imino(methyl)oxo-λ^6-sulfanyl]phenyl}-5-methyl-6-(trifluoromethyl)pyridazine-4-carboxamide] |  | 0.2 to 0.5 µM
18 | Cc1c(Oc2nnc(C(F)(F)F)c(C)c2C(=O)Nc2cccc(S(C)(=N)=O)c2)ccc(Cl)c1F (single isomer, unassigned) [Compound 1487, 3-(4-chloro-3-fluoro-2-methyl-phenoxy)-5-methyl-N-[3-(methylsulfonimidoyl)phenyl]-6-(trifluoromethyl)pyridazine-4-carboxamide] | ≤ 0.02 µM | ≤ 0.02 µM
19 | COc1c(Oc2nnc(C(F)(F)F)c(C)c2C(=O)Nc2cccc(S(C)(=N)=O)c2)ccc(Cl)c1F (single isomer, unassigned) [Compound 1490, 3-(4-chloro-3-fluoro-2-methoxy-phenoxy)-5-methyl-N-[3-(methylsulfonimidoyl)phenyl]-6-(trifluoromethyl)pyridazine-4-carboxamide] | ≤ 0.02 µM | ≤ 0.02 µM
20 | Cc1c(C(F)(F)F)nnc(Oc2ccc(OC3CCC3)c(F)c2F)c1C(=O)Nc1cccc(S(C)(=N)=O)c1 (single isomer, unassigned) [Compound 1493, 3-(4-cyclobutoxy-2,3-difluorophenoxy)-N-{3-[imino(methyl)oxo-λ^6-sulfanyl]phenyl}-5-methyl-6-(trifluoromethyl)pyridazine-4-carboxamide] | ≤ 0.02 µM | ≤ 0.02 µM
21 | Cc1c(C(F)(F)F)nnc(Oc2ccc(OC3CCC3)c(F)c2F)c1C(=O)Nc1cccc(S(C)(=N)=O)c1 (single isomer, unassigned) [Compound 1494, 3-(4-cyclobutoxy-2,3-difluorophenoxy)-N-{3-[imino(methyl)oxo-λ^6-sulfanyl]phenyl}-5-methyl-6-(trifluoromethyl)pyridazine-4-carboxamide] | 0.02 to 0.04 µM | ≤ 0.02 µM
22 | Cc1c(C(F)(F)F)nnc(Oc2ccc(OC(F)(F)F)cc2F)c1C(=O)Nc1cccc(S(C)(=N)=O)c1 (single isomer, unassigned) [Compound 1496, 3-[2-fluoro-4-(trifluoromethoxy)phenoxy]-N-{3-[imino(methyl)oxo-λ^6-sulfanyl]phenyl}-5-methyl-6-(trifluoromethyl)pyridazine-4-carboxamide] | ≤ 0.02 µM | ≤ 0.02 µM
23 | Cc1nc(OC2CCC2)ccc1Oc1nnc(C(F)(F)F)c(C)c1C(=O)Nc1cccc(S(C)(=N)=O)c1 (single isomer, unassigned) [Compound 1499, 3-((6-cyclobutoxy-2-methylpyridin-3-yl)oxy)-5-methyl-N-(3-(S-methylsulfonimidoyl)phenyl)-6-(trifluoromethyl)pyridazine-4-carboxamide] | 0.04 to 0.2 µM | 0.04 to 0.2 µM
